Experimental data: ChEMBL document CHEMBL1134012, “Synthesis of thiophene-2-carboxamidines containing 2-aminothiazoles and their biological evaluation as urokinase inhibitors” (Bioorg Med Chem Lett, 2001)

Molecular target: Urokinase-type plasminogen activator (Homo sapiens, UniProt P00749)
Test: In vitro inhibitory activity against Urokinase-type plasminogen activator (microPa)

SMILES	Ki [nM]
CSc1sc(C(=N)N)cc1-c1csc(NCCCc2ccccc2)n1	350
CSc1sc(C(=N)N)cc1-c1csc(Nc2ccc(Cc3ccccc3)cc2)n1	180
COc1cc(Nc2nc(-c3cc(C(=N)N)sc3SC)cs2)cc(OC)c1OC	160
CSc1sc(C(=N)N)cc1-c1csc(Nc2ccc(N(C)C)cc2)n1	310
CSc1sc(C(=N)N)cc1-c1csc(Nc2ccccc2Br)n1	280
CSc1sc(C(=N)N)cc1-c1csc(Nc2cccc3ccccc23)n1	500
CSc1sc(C(=N)N)cc1-c1csc(Nc2ccc(/N=N/c3ccccc3)cc2)n1	180
CSc1sc(C(=N)N)cc1-c1csc(Nc2ccccc2C(C)C)n1	700
CSc1sc(C(=N)N)cc1-c1csc(Nc2ccccc2Cl)n1	1460
CSc1sc(C(=N)N)cc1-c1csc(N)n1	3900
CSc1sc(C(=N)N)cc1-c1csc(NCc2ccc(C)cc2)n1	640
CSc1sc(C(=N)N)cc1-c1csc(Nc2ccc(OCc3ccccc3)cc2)n1	180
CSc1sc(C(=N)N)cc1-c1csc(Nc2ccc(Oc3ccccc3)cc2)n1	60
CSc1sc(C(=N)N)cc1-c1csc(Nc2ccc3c(c2)OCO3)n1	520
CSc1sc(C(=N)N)cc1-c1csc(Nc2cccc(OCC(N)=O)c2)n1	1020
CSc1sc(C(=N)N)cc1-c1csc(Nc2ccc(Oc3ccc(C(F)(F)F)cn3)cc2)n1	910
CSc1sc(C(=N)N)cc1-c1csc(Nc2ccc(Nc3ccccc3)cc2)n1	70
CSc1sc(C(=N)N)cc1-c1csc(NCCN2CCOCC2)n1	1400
CSc1sc(C(=N)N)cc1-c1csc(Nc2ccc(S(=O)(=O)N3CCCCC3)cc2)n1	400

Results, then the molecule that gave them:

Ki [nM]	SMILES
1180	CSc1sc(C(=N)N)cc1-c1csc(NC(c2ccccc2)c2ccccc2)n1
660	COc1ccc(OC)c(Nc2nc(-c3cc(C(=N)N)sc3SC)cs2)c1
280	CSc1sc(C(=N)N)cc1-c1csc(Nc2cccc(C)c2C)n1
1500	CSc1sc(C(=N)N)cc1-c1csc(Nc2c(Cl)cccc2Cl)n1
280	COc1cccc(Nc2nc(-c3cc(C(=N)N)sc3SC)cs2)c1
280	CSc1sc(C(=N)N)cc1-c1csc(Nc2ccc(Cl)cc2C)n1
1600	CSc1sc(C(=N)N)cc1-c1csc(NCCN2CCCCC2)n1
430	CSc1sc(C(=N)N)cc1-c1csc(Nc2ccc(C)cc2Br)n1
280	COc1ccc(Nc2nc(-c3cc(C(=N)N)sc3SC)cs2)cc1
1620	Cc1sc(C(=N)N)cc1-c1csc(N)n1
80	Cc1sc(C(=N)N)cc1-c1csc(Nc2ccc(Oc3ccccc3)cc2)n1
3060	CSc1sc(C(=N)N)cc1-c1csc(N2CCN(c3ccccc3F)CC2)n1
110	CSc1sc(C(=N)N)cc1-c1csc(Nc2ccc(Oc3ccc(Cl)cc3)cc2)n1
440	CSc1sc(C(=N)N)cc1-c1csc(Nc2cccc(Cl)c2C)n1
6000	N=C(N)c1ccc(CS)s1
